Tests used:
mouse [1] = settings: Combined chronic toxicity/carcinogenicity, cd1, Oral, Feed, dose end: 104 week, group: systemic
rat [2] = settings: Multigenerational reproductive toxicity study, sprague dawley, Oral, Feed, dose end: 2 generation
mouse [3] = settings: Subchronic oral toxicity in rodents, cd1, Feed, dose end: 13 week, group: systemic
rat [4] = settings: Prenatal developmental toxicity study, sprague dawley, Oral, Gavage/Intubation, dose end: 15 GD
rabbit [5] = settings: Prenatal developmental toxicity study, new zealand white, Oral, Gavage/Intubation, dose end: 18 GD
rat [6] = settings: Combined chronic toxicity/carcinogenicity, other, Oral, Gavage/Intubation, dose end: 104 week, group: systemic
rat [7] = settings: Subchronic oral toxicity in rodents, other, Feed, dose end: 13 week
rat [8] = settings: Subchronic oral toxicity in rodents, sprague-dawley, Feed, dose end: 13 week, group: systemic
rat [9] = settings: Prenatal developmental toxicity study, sprague dawley, Oral, Gavage/Intubation, dose end: 16 GD
dog [10] = settings: Chronic toxicity; beagle; Oral; Feed; dose end: 52 week; group: systemic; systemic / hematology / erythrocyte (rbc) count differential / erythrocyte (rbc) + systemic / hematology / hemoglobin (hgb) / hemoglobin (…
mouse [11] = settings: Carcinogenicity; cd1; Oral; [Not Specified]; dose end: 104 week; group: systemic; systemic / in life observation / body weight / body weight + systemic / in life observation / body weight / body weight gain
rat [12] = settings: Combined chronic toxicity/carcinogenicity, sprague dawley, Oral, Feed, dose end: 24 month, group: systemic
rabbit [13] = settings: Prenatal developmental toxicity study, new zealand white, Oral, Gavage/Intubation, dose end: 19 GD
dog [14] = settings: Chronic toxicity; beagle; Oral; Feed; dose end: 52 week; group: systemic; systemic / hematology / erythrocyte (rbc) count differential / erythrocyte (rbc) + systemic / hematology / hemoglobin (hgb) / hemoglobin (…; remark: listed apart in the source
[15] = systemic / pathology gross / skin / lesion(s) (nos) + systemic / pathology microscopic / skin / inflammation
[16] = group: offspring, systemic / in life observation / clinical signs / tremors + systemic / in life observation / body weight / litter weight + systemic / in …
[17] = group: offspring, systemic / in life observation / clinical signs / tremors + systemic / pathology gross / skin / ulcer
[18] = group: parental, systemic / pathology gross / skin / ulcer
[19] = systemic / organ weight / liver / relative to body weight
[20] = group: developmental, developmental / developmental malformation / bone / absent + developmental / developmental malformation / bone / delayed ossification + …
[21] = group: maternal, systemic / in life observation / body weight / body weight gain
[22] = group: maternal, systemic / in life observation / body weight / body weight gain + systemic / in life observation / clinical signs / blood around eyes and …
[23] = group: developmental, developmental / developmental malformation / bone / short
[24] = group: developmental, developmental / developmental malformation / bone / short + developmental / developmental malformation / bone / [other]
[25] = group: maternal, reproductive / offspring survival early / offspring survival early other / NOS + reproductive / reproductive performance / resorptions / …
[26] = systemic / in life observation / body weight / body weight + systemic / in life observation / water consumption / water consumption + …
[27] = systemic / pathology microscopic / mammary gland / fibroadenoma
[28] = group: cholinesterase, cholinesterase / cholinesterase / cholinesterase / erythrocyte cholinesterase (che)
[29] = group: systemic, systemic / hematology / erythrocyte (rbc) count differential / erythrocyte (rbc) + systemic / hematology / hematocrit (hct) / hematocrit (…
[30] = systemic / organ weight / heart / relative to body weight
[31] = group: developmental, systemic / in life observation / body weight / fetal weight
[32] = group: maternal, systemic / in life observation / clinical signs / alopecia + systemic / in life observation / clinical signs / vaginal discharge
[33] = group: maternal, systemic / in life observation / clinical signs / alopecia + systemic / in life observation / clinical signs / vaginal discharge + systemic…
[34] = systemic / in life observation / clinical signs / hyperactivity
[35] = systemic / in life observation / clinical signs / hyperactivity + systemic / in life observation / body weight / body weight + systemic / in…
[36] = group: developmental, developmental / developmental malformation / aorta / double + developmental / developmental malformation / gallbladder / absent + …
[37] = group: maternal, systemic / in life observation / body weight / body weight gain + reproductive / reproductive performance / aborted / aborted + systemic / …

`CC(C)C(Nc1ccc(C(F)(F)F)cc1Cl)C(=O)OC(C#N)c1cccc(Oc2ccccc2)c1` (stereo not given) [Fluvalinate] was tested, and the LEL (mouse [1]; [15]) was 10 mg/kg/day, the NEL (mouse [1]; [15]) was 2 mg/kg/day and the LOAEL (mouse [1]; systemic / pathology microscopic / kidney / inflammation) was 20 mg/kg/day. It also gave an NOAEL (mouse [1]; systemic / pathology microscopic / kidney / inflammation + systemic / pathology gross / skin / lesion(s) (nos) + systemic / pathology …) of 10 mg/kg/day, an LEL (rat [2]; [16]) of 9.53 mg/kg/day and an LOAEL (rat [2]; [16]) of 9.53 mg/kg/day. The NEL (rat [2]; [17]) was 1.9 mg/kg/day, the NOAEL (rat [2]; [17]) was 1.9 mg/kg/day and the LEL (rat [2]; [18]) was 9.53 mg/kg/day. For the same compound, the LOAEL (rat [2]; [18]) was 9.53 mg/kg/day, the NEL (rat [2]; [18]) was 1.9 mg/kg/day and the NOAEL (rat [2]; [18]) was 1.9 mg/kg/day. It also gave an LEL (mouse [3]; [19]) of 1 mg/kg/day, an NEL (mouse [3]; [19]) of under 1 mg/kg/day and an NOAEL (mouse [3]; systemic / pathology gross / skin / lesion(s) (nos) + systemic / hematology / erythrocyte (rbc) count differential / erythrocyte (rbc) + …) of 3 mg/kg/day. The LOAEL (mouse [3]; systemic / pathology gross / skin / lesion(s) (nos) + systemic / in life observation / body weight / body weight) was 30 mg/kg/day, the LEL (rat [4]; [20]) was 50 mg/kg/day and the LOAEL (rat [4]; [20]) was over 50 mg/kg/day. For the same compound, the NEL (rat [4]; [20]) was 10 mg/kg/day, the NOAEL (rat [4]; [20]) was at least 50 mg/kg/day and the LEL (rat [4]; [21]) was 10 mg/kg/day. It also gave an LOAEL (rat [4]; [21]) of 10 mg/kg/day, an NEL (rat [4]; [22]) of 2 mg/kg/day and an NOAEL (rat [4]; [22]) of 2 mg/kg/day. For the same compound, the LEL (rabbit [5]; [23]) was 125 mg/kg/day, the LOAEL (rabbit [5]; [23]) was 125 mg/kg/day and the NEL (rabbit [5]; [24]) was 25 mg/kg/day. The NOAEL (rabbit [5]; [24]) was 25 mg/kg/day, the LEL (rabbit [5]; [25]) was 125 mg/kg/day and the LOAEL (rabbit [5]; [25]) was 125 mg/kg/day. It also gave an NEL (rabbit [5]; [25]) of 25 mg/kg/day, an NOAEL (rabbit [5]; [25]) of 25 mg/kg/day and an LOAEL (rat [6]; [26]) of 2.5 mg/kg/day. The NOAEL (rat [6]; [26]) was 1 mg/kg/day, the LEL (rat [6]; [27]) was 0.25 mg/kg/day and the NEL (rat [6]; [27]) was under 0.25 mg/kg/day. It also gave an LEL (rat [7]; [28]) of 18.8 mg/kg/day, an LOAEL (rat [7]; [28]) of over 116 mg/kg/day and an NEL (rat [7]; [28]) of 7.7 mg/kg/day. The NOAEL (rat [7]; [28]) was at least 116 mg/kg/day, the LEL (rat [7]; [29]) was 1.82 mg/kg/day and the LOAEL (rat [7]; [29]) was 1.82 mg/kg/day. The NEL (rat [7]; [29]) was under 1.82 mg/kg/day, the NOAEL (rat [7]; [29]) was under 1.82 mg/kg/day and the LOAEL (rat [8]; systemic / hematology / erythrocyte (rbc) count differential / erythrocyte (rbc)) was 30 mg/kg/day. For the same compound, the NOAEL (rat [8]; systemic / hematology / erythrocyte (rbc) count differential / erythrocyte (rbc) + systemic / clinical chemistry / albumin / albumin + …) was 3 mg/kg/day, the LEL (rat [8]; [30]) was 0.3 mg/kg/day and the NEL (rat [8]; [30]) was under 0.3 mg/kg/day.

With `COc1nc(C)nc(NC(=O)NS(=O)(=O)c2ccccc2Cl)n1` [Chlorsulfuron] the LEL (rat [9]; [31]) was 1500 mg/kg/day, the LOAEL (rat [9]; [31]) was 1500 mg/kg/day and the NEL (rat [9]; [31]) was 500 mg/kg/day. For the same compound, the NOAEL (rat [9]; [31]) was 500 mg/kg/day, the LEL (rat [9]; [32]) was 500 mg/kg/day and the LOAEL (rat [9]; [32]) was 500 mg/kg/day. The NEL (rat [9]; [33]) was 165 mg/kg/day, the NOAEL (rat [9]; [33]) was 165 mg/kg/day and the LEL (dog [10]) was 254 mg/kg/day. It also gave an LOAEL (dog [10]) of 254 mg/kg/day, an NEL (dog [10]) of 60.6 mg/kg/day and an NOAEL (dog [10]) of 60.6 mg/kg/day. The LEL (mouse [11]) was 750 mg/kg/day, the LOAEL (mouse [11]) was 750 mg/kg/day and the NEL (mouse [11]) was 108 mg/kg/day. For the same compound, the NOAEL (mouse [11]) was 108 mg/kg/day, the LEL (rat [12]; [34]) was 30 mg/kg/day and the LOAEL (rat [12]; [34]) was 30 mg/kg/day. The NEL (rat [12]; [35]) was 2 mg/kg/day, the NOAEL (rat [12]; [35]) was 2 mg/kg/day and the LEL (rabbit [13]; [36]) was 400 mg/kg/day. It also gave an LOAEL (rabbit [13]; [36]) of 400 mg/kg/day, an NEL (rabbit [13]; [36]) of 200 mg/kg/day and an NOAEL (rabbit [13]; [36]) of 200 mg/kg/day. It also gave an LEL (rabbit [13]; [21]) of 200 mg/kg/day, an LOAEL (rabbit [13]; [21]) of 200 mg/kg/day and an NEL (rabbit [13]; [37]) of 75 mg/kg/day. For the same compound, the NOAEL (rabbit [13]; [37]) was 75 mg/kg/day, the LEL (dog [14]) was 254 mg/kg/day and the LOAEL (dog [14]) was 254 mg/kg/day. It also gave an NEL (dog [14]) of 60.6 mg/kg/day and an NOAEL (dog [14]) of 60.6 mg/kg/day.

Source: EPA's ToxRefDB 2
